System: HIV-1
Test: Single-round infectious HIV-1 luciferase reporter virus infection of HeLa CD4 cells
Format: cell-based
Conditions: Human immunodeficiency virus 1, HeLa, 72 h, read-out: EC50 Group from Table 1
Experimental: • Virus production—Human embryonic Kidney cell line, 293T, was propagated in Dulbecco's Modified Eagle Medium (Invitrogen, Carlsbad, Calif.) containing 10% fetal Bovine serum (FBS, Sigma, St. Louis, Mo.). • Virus infection—Human epithelial cell line, HeLa, expressing the HIV-1 receptor CD4 was propagated in Dulbecco's Modified Eagle Medium (Invitrogen, Carlsbad, Calif.) containing 10% fetal Bovine serum (FBS, Sigma, St. Louis , Mo.) and supplemented with 0.2 mg/mL Geneticin (Invitrogen, Carlsbad, Calif.). Virus-Single-round infectious reporter virus was produced by co-transfecting human embryonic Kidney 293 cells with an HIV-1 envelope DNA expression vector and a proviral cDNA containing an envelope deletion mutation and the luciferase reporter gene inserted in place of HIV-1 nef sequences (Chen et al, Ref. 41). Transfections were performed using lipofectAMINE PLUS reagent as described by the manufacturer (Invitrogen, Carlsbad, Calif.). Experiment • 1. HeLa CD4 cells were plated in 96 well plates at a cell density of 1×10^4 cells per well in 100 μl Dulbecco's Modified Eagle Medium containing 10% fetal Bovine serum and incubated overnight. • 2. Compound was added in a 2 μl dimethylsulfoxide solution, so that the final assay concentration would be ≦10 μM. • 3. 100 μl of single-round infectious reporter virus in Dulbecco's Modified Eagle Medium was then added to the plated cells and compound at an approximate multiplicity of infection (MOI) of 0.01, resulting in a final volume of 200 μl per well. • 4. Virally-infected cells were incubated at 37 degrees Celsius, in a CO2 incubator, and harvested 72 h after infection. • 5. Viral infection was monitored by measuring luciferase expression from viral DNA in the infected cells using a luciferase reporter gene assay kit, as described by the manufacturer (Roche Molecular Biochemicals, Indianapolis, Ind.). Infected cell supernatants were removed and 50 μl of lysis buffer was added per well. After 15 minutes, 50 μl of freshly-reconstituted luciferase assay reagent was added per well. Luciferase activity was then quantified by measuring luminescence using a Wallac microbeta scintillation counter. • 6. The percent inhibition for each compound was calculated by quantifying the level of luciferase expression in cells infected in the presence of each compound as a percentage of that observed for cells infected in the absence of compound and subtracting such a determined value from 100. • 7. An EC50 provides a method for comparing the antiviral potency of the compounds of this disclosure. The effective concentration for fifty percent inhibition (EC50) was calculated with the Microsoft Excel Xlfit curve fitting software. For each compound, curves were generated from percent inhibition calculated at 10 different concentrations by using a four paramenter logistic model (model 205). Table 1 is the key for the data in Table 2. Results

**Q.** With `COc1cnc(-n2cnc(C)n2)c2[nH]cc(C(=O)C(=O)N3CCN(/C(=N/C#N)c4ccccn4)CC3)c12` [AM-82] as the compound, how does the EC50 read?
**A.** Its EC50 is under 500 nM.
